In patent publication US20180099937A1, “NOVEL ARYL-CYANOGUANIDINE COMPOUNDS” (Bayer Pharma Aktiengesellschaft, priority 2015, published 2018):

What was measured:
SMYD2 [1] = target: T1, SMYD2 (Homo sapiens, UniProt Q9NRG4); experiment: Scintillation Proximity Assay (SPA) for detection of SMYD2 enzymatic inhibition; assay type: biochemical; set-up: The SMYD2 full length enzyme was produced in-house by expression (with an N-terminal 6× His tag) in E. coli; 6xHis (N); made in house; host or cells: E. coli; settings: SMYD2 full length enzyme, p53 Peptide substrate 1.0 μM, 3H-SAM 60 nM; read-out: IC50 [mol/l] (SPA Assay)
Procedure, shortened: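 Full-length N-His SMYD2 from E. coli (typically 3 nM) was preincubated with compounds (0.1 nM–20 μM) for 15 min, then reacted 30 min at 22° C with 60 nM 3H-SAM and 1.0 μM biotinylated p53 peptide in Tris pH 9.0. Streptavidin SPA beads read methylation, and IC50 came from a 4-parameter fit.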

SMYD2 [2] = target: T1, SMYD2; experiment: In Cell Western (ICW) cell-based assay for detection of SMYD2 methylation activity; set-up: expressed in transfected cells; host or cells: KYSE-150 (human esophageal carcinoma, DSMZ ACC 375); settings: SMYD2 overexpressing KYSE-150 cells, 72 h treatment, p53K370me1 signal normalized to DRAQ5; read-out: IC50 [mol/l] (ICW assay)
From the text: 1.2 Cell-Based Assay for Detection of SMYD2 methylation Activity
For the detection of SMYD2 cellular methylation activity an In Cell Western (ICW) assay was established. This assay allows rapid processing of multiple samples for SMYD2 methylation derived immunofluorescence signals, with normalization to cell number via the use of the nucleic acid dye DRAQS. KYSE-150 cells (human esophageal carcinoma cell line; DSMZ-German Collection of Microorganisms and Cell Cultures; No: ACC 375) have been stably transfected with a construct expressing wild-type SMYD2 (NCBI Reference Sequence: NP_064582.2). To detect SMYD2-mediated methylation signals in cells, a customized antibody directed against mono-methylated lysine 370 on protein p53 (p53K370me1) was used. The polyclonal antibody was generated (Eurogentec) against a p53 peptide containing the mono-methylated K370 epitope as described elsewhere (Huang et al., Nature, 2006, 444(7119):629-32).
For conducting the ICW assay 5000 SMYD2 overexpressing KYSE-150 cells/well were seeded in 96-well plates (SIGMA) and cultivated for 24 h. As a control for maximal inhibition of ectopic methylation activity, non-transfected KYSE-150 cells were used. Cells were grown in 49% RPMI 1640 with 49% Ham's F12 media supplemented with 2% heat inactivated fetal calf serum (FCS). For determination of SMYD2 inhibitory activity, cells were treated for 72 h in the presence of compounds or with DMSO. Cells were treated with compounds to be tested at a final concentration range varying from 3.9×10^−8 to 5×10^−6 M. Media was removed and 3.7% (w/v) formaldehyde in PBS was added for 20 min. After two washes with phosphate buffered saline (PBS), 0.25% (v/v) Triton X100 in PBS was added for 15 minutes of permeabilization. After one washing step with PBS, cells were blocked for 1 h with 5% (w/v) non-fat dry milk in PBS. Fixed cells were exposed to primary […] antibody in 5% non-fat dry milk in PBS for 24 h. One row of cells on each plate was not exposed to p53K370me1 antibody and was reserved for background control measurements. The wells were washed three times with PBS, then secondary IR800 conjugated antibody (LI-COR) and DNA-intercalating dye, 5 μM DRAQ5 (LI-COR) were added for 3 h. After 5 washes with PBS, the fluorescence in each well was measured on an Odyssey (LI-COR) scanner at 800 nm (p53K370me1 signal; 764 nm excitation) and 700 nm (DRAQS signal; 683 nm excitation). Fluorescence intensity was quantified and normalized to background and DRAQ5 signals. IC50 values were calculated by fitting the normalized inhibition data to a 4-parameter logistic equation (Minimum, Maximum, IC50, Hill; Y=Max+(Min−Max)/(1+(X/IC50)Hill)) for each tested compound. For IC50 determination C0 (=no inhibition) was defined as the signal measured for DMSO treated controls. Ci (maximal inhibition) was defined as the signal measured for non SMYD2 overexpressing KYSE150 cells.

T1 sequence (Q9NRG4 whole entry): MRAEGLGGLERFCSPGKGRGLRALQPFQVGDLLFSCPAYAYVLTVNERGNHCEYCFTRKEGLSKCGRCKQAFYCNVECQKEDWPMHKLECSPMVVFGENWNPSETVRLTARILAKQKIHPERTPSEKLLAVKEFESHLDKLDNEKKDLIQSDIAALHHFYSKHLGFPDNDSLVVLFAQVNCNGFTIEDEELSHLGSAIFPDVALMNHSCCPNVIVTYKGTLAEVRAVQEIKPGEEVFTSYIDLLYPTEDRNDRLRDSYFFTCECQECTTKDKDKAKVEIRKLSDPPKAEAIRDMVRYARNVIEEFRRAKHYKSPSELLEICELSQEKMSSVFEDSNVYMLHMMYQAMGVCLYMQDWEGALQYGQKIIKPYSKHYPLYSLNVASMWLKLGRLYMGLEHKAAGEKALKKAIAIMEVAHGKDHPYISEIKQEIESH

SMILES | IC50 (SMYD2 [1]) [µM] | IC50 (SMYD2 [2]) [µM]
CCN(C(=O)[C@H]1CCN1)C1CN(/C(=N\C#N)Nc2cccc(OC(F)F)c2)N=C1c1ccc(Cl)c(C)c1 (mixture of isomers) [Example 36, (2R)-N-[3-(4-Chloro-3-methylphenyl)-1-{N′-cyano-N-[3-(difluoromethoxy)phenyl]-carbamimidoyl}-4,5-dihydro-1H-pyrazol-4-yl]-N-ethylazetidine-2-carboxamide] | 0.00803 | 0.00387
CCN(C(=O)c1cccc(=O)[nH]1)C1CN(/C(=N\C#N)Nc2cccc(OC(F)(F)F)c2)N=C1c1ccc(Cl)c(Cl)c1 (racemic) [Example 18, rac-N-[1-{N′-Cyano-N-[3-(trifluoromethoxy)phenyl]carbamimidoyl}-3-(3,4-dichlorophenyl)-4,5-dihydro-1H-pyrazol-4-yl]-N-ethyl-6-oxo-1,6-dihydropyridine-2-carboxamide] | 1.52 | 0.764
CCN(C(=O)[C@H]1CCCN1)C1CN(/C(=N\C#N)Nc2cccc(OC(F)F)c2F)N=C1c1ccc(Cl)c(Cl)c1 (single isomer, unassigned) [Example 13.1, N-[1-{N′-Cyano-N-[3-(difluoromethoxy)-2-fluorophenyl]carbamimidoyl}-3-(3,4-dichlorophenyl)-4,5-dihydro-1H-pyrazol-4-yl]-N-ethyl-D-prolinamide] | 0.0156 | 0.0203
CCN(C(=O)[C@H]1CCCN1)C1CN(/C(=N\C#N)Nc2cccc(OC(F)(F)F)c2F)N=C1c1ccc(Cl)c(Cl)c1 (single isomer, unassigned) [Example 21.2, N-[1-{N′-Cyano-N-[2-fluoro-3-(trifluoromethoxy)phenyl]carbamimidoyl}-3-(3,4-dichlorophenyl)-4,5-dihydro-1H-pyrazol-4-yl]-N-ethyl-D-prolinamide] | 0.878 | 0.228
CCN(C(=O)[C@H]1CCCN1)C1CN(/C(=N\C#N)Nc2ccc(F)c(OC(F)(F)F)c2)N=C1c1ccc(Cl)c(Cl)c1 (single isomer, unassigned) [Example 22.1, N-[1-{N′-Cyano-N-[4-fluoro-3-(trifluoromethoxy)phenyl]carbamimidoyl}-3-(3,4-dichlorophenyl)-4,5-dihydro-1H-pyrazol-4-yl]-N-ethyl-D-prolinamide] | 0.0305 | 0.0965
CCN(C(=O)[C@H]1CCCN1)C1CN(/C(=N\C#N)Nc2cc(OC)cc(C(F)(F)F)c2)N=C1c1ccc(Cl)c(Cl)c1 (mixture of isomers) [Example 28, N-[1-{N′-Cyano-N-[3-methoxy-5-(trifluoromethyl)phenyl]carbamimidoyl}-3-(3,4-dichlorophenyl)-4,5-dihydro-1H-pyrazol-4-yl]-N-ethyl-D-prolinamide] | 0.0395 | 0.077
CCN(C(=O)[C@H]1CCN1)C1CN(/C(=N\C#N)Nc2cccc(OC(F)F)c2)N=C1c1ccc(Cl)c(Cl)c1 (mixture of isomers) [Example 2, (2R)-N-[1-{N′-cyano-N-[3-(difluoromethoxy)phenyl]carbamimidoyl}-3-(3,4-dichlorophenyl)-4,5-dihydro-1H-pyrazol-4-yl]-N-ethylazetidine-2-carboxamide] | 0.0145 | 0.0445
CCN(C(=O)[C@H]1C[C@@H](F)CN1)C1CN(/C(=N\C#N)Nc2cccc(OC(F)F)c2)N=C1c1ccc(Cl)c(C)c1 (mixture of isomers) [Example 38, (4R)-N-[3-(4-Chloro-3-methylphenyl)-1-{N′-cyano-N-[3-(difluoromethoxy)phenyl]carbamimidoyl}-4,5-dihydro-1H-pyrazol-4-yl]-N-ethyl-4-fluoro-D-prolinamide] | 0.387 | 0.0188
CCN(C(=O)c1cccc(=O)[nH]1)C1CN(/C(=N\C#N)Nc2cccc(OC(F)F)c2)N=C1c1ccc(Cl)c(Cl)c1 (racemic) [Example 5, rac-N-[1-{N′-Cyano-N-[3-(difluoromethoxy)phenyl]carbamimidoyl}-3-(3,4-dichlorophenyl)-4,5-dihydro-1-pyrazol-4-yl]-N-ethyl-6-oxo-1,6-dihydropyridine-2-carboxamide] | 0.793 | 0.72

Results, then the compound that gave them:

IC50 (SMYD2 [1]) [µM] | IC50 (SMYD2 [2]) [µM] | SMILES
0.0384 | 0.268 | CCN(C(=O)[C@H]1CCCN1)C1CN(/C(=N\C#N)Nc2cc(OC)ccc2Cl)N=C1c1ccc(Cl)c(Cl)c1 (mixture of isomers) [Example 32, N-{1-[N-(2-Chloro-5-methoxyphenyl)-N′-cyanocarbamimidoyl]-3-(3,4-dichlorophenyl)-4,5-dihydro-1H-pyrazol-4-yl}-N-ethyl-D-prolinamide]
0.0443 | 0.206 | CCCN(C(=O)[C@H]1CCCN1)C1CN(/C(=N\C#N)Nc2cccc(OC(F)F)c2)N=C1c1ccc(Cl)c(C)c1 (mixture of isomers) [Example 40, N-[3-(4-Chloro-3-methylphenyl)-1-{N′-cyano-N-[3-(difluoromethoxy)phenyl]carbamimidoyl}-4,5-dihydro-1H-pyrazol-4-yl]-N-propyl-D-prolinamide]
0.0198 | 0.0634 | CCN(C(=O)[C@H]1C[C@@H](O)CN1)C1CN(/C(=N\C#N)Nc2cccc(OC(F)F)c2)N=C1c1ccc(Cl)c(Cl)c1 (single isomer, unassigned) [Example 3.1]
0.028 | 0.0168 | CCN(C(=O)[C@H]1CCCN1)C1CN(/C(=N\C#N)Nc2cccc(OC(F)(F)F)c2F)N=C1c1ccc(Cl)c(Cl)c1 (single isomer, unassigned) [Example 21.1, N-[1-{N′-Cyano-N-[2-fluoro-3-(trifluoromethoxy)phenyl]carbamimidoyl}-3-(3,4-dichlorophenyl)-4,5-dihydro-1H-pyrazol-4-yl]-N-ethyl-D-prolinamide]
0.03 | 0.00255 | CCN(C(=O)[C@H]1C[C@@H](F)CN1)C1CN(/C(=N\C#N)Nc2cccc(OC(F)F)c2)N=C1c1ccc(Cl)c(C)c1 (single isomer, unassigned) [Example 38.1]
0.0105 | 0.0148 | CCN(C(=O)[C@H]1CCN1)C1CN(/C(=N\C#N)Nc2cccc(OC(F)F)c2)N=C1c1ccc(Cl)c(C)c1 (single isomer, unassigned) [Example 36.1]
0.00445 | 0.0026 | CCN(C(=O)[C@H]1CCCN1)C1CN(/C(=N\C#N)Nc2cccc(OC(F)F)c2)N=C1c1ccc(Cl)c(Cl)c1 (single isomer, unassigned) [Example 1.1, N-[1-{N′-Cyano-N-[3-(difluoromethoxy)phenyl]carbamimidoyl}-3-(3,4-dichlorphenyl)-4,5-dihydro-1H-pyrazol-4-yl]-N-ethyl-D-prolinamide]
0.0113 | 0.104 | C[C@]1(C(=O)NC2CN(/C(=N\C#N)Nc3cccc(OC(F)F)c3)N=C2c2ccc(Cl)c(Cl)c2)CCCN1 (mixture of isomers) [Example 6, N-[1-{N′-Cyano-N-[3-(difluoromethoxy)phenyl]carbamimidoyl}-3-(3,4-dichlorophenyl)-4,5-dihydro-1H-pyrazol-1-yl]-2-methyl-D-prolinamide]
0.121 | 0.571 | N#C/N=C(/Nc1cccc(OC(F)F)c1)N1CC(NC(=O)[C@@H]2CCC[C@@H]2N)C(c2ccc(Cl)c(Cl)c2)=N1 (relative stereo) [Example 41, Rel-(1R,2S)-2-amino-N-[1-{N′-cyano-N-[3-(difluoromethoxy)phenyl]carbamimidoyl}-3-(3,4-dichlorophenyl)-4,5-dihydro-1H-pyrazol-4-yl]cyclopentanecarboxamide]
